According to publication PMC8069501, “Identification of Vinyl Sulfone Derivatives as EGFR Tyrosine Kinase Inhibitor: In Vitro and In Silico Studies” (Molecules, 2021):

What was measured:
Assay type in all cases: biochemical
[1] = target: T1, HER2 (Homo sapiens, UniProt P04626); assay: kinase inhibition assay (ADP-Glo)
T1 construct: gene ERBB2

[2] = target: T2, EGFR-TK (epidermal growth factor receptor tyrosine kinase) (Homo sapiens, UniProt P00533); assay: ADP-Glo kinase assay
T2 construct: tyrosine kinase (TK) domain

[3] = target: T3, JAK3 (Homo sapiens, UniProt P52333); assay: kinase inhibition assay (ADP-Glo)
T3 sequence (P52333 1-1124): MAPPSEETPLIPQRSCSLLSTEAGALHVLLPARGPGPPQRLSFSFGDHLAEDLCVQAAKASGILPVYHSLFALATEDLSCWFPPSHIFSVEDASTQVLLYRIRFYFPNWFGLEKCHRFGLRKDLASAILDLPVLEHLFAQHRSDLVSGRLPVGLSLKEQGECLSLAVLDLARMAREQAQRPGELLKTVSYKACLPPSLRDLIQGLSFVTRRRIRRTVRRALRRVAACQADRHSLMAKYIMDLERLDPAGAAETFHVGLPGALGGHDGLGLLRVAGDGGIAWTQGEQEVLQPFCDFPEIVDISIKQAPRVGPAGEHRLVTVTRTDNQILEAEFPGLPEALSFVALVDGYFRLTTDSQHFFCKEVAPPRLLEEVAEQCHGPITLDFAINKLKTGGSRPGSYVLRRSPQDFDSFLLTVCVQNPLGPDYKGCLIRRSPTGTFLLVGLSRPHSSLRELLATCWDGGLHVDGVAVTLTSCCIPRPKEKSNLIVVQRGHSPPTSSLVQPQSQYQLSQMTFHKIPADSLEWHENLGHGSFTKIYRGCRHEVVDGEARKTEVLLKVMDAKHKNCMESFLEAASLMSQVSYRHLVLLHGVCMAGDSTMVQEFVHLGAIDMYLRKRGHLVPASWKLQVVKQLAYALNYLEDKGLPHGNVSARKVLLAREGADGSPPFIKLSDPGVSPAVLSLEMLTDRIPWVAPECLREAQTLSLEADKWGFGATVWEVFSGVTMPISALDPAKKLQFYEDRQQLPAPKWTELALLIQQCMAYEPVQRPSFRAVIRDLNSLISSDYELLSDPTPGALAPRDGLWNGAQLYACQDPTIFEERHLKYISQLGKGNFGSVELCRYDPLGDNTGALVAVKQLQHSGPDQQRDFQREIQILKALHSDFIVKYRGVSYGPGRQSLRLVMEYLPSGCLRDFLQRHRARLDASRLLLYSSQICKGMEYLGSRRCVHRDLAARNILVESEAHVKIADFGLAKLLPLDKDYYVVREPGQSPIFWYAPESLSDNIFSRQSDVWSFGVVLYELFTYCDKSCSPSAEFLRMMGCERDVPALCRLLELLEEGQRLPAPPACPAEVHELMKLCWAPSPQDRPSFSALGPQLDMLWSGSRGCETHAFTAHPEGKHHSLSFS

T2 sequence (P00533 712-979 limits assumed): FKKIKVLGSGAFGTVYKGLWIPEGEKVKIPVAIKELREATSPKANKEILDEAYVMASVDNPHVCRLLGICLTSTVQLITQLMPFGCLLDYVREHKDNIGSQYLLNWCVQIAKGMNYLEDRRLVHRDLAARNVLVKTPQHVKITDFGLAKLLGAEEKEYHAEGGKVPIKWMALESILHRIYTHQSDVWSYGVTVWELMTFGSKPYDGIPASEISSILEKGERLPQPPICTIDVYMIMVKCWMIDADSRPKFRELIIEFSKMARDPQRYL
T1 sequence (P04626 23-1255): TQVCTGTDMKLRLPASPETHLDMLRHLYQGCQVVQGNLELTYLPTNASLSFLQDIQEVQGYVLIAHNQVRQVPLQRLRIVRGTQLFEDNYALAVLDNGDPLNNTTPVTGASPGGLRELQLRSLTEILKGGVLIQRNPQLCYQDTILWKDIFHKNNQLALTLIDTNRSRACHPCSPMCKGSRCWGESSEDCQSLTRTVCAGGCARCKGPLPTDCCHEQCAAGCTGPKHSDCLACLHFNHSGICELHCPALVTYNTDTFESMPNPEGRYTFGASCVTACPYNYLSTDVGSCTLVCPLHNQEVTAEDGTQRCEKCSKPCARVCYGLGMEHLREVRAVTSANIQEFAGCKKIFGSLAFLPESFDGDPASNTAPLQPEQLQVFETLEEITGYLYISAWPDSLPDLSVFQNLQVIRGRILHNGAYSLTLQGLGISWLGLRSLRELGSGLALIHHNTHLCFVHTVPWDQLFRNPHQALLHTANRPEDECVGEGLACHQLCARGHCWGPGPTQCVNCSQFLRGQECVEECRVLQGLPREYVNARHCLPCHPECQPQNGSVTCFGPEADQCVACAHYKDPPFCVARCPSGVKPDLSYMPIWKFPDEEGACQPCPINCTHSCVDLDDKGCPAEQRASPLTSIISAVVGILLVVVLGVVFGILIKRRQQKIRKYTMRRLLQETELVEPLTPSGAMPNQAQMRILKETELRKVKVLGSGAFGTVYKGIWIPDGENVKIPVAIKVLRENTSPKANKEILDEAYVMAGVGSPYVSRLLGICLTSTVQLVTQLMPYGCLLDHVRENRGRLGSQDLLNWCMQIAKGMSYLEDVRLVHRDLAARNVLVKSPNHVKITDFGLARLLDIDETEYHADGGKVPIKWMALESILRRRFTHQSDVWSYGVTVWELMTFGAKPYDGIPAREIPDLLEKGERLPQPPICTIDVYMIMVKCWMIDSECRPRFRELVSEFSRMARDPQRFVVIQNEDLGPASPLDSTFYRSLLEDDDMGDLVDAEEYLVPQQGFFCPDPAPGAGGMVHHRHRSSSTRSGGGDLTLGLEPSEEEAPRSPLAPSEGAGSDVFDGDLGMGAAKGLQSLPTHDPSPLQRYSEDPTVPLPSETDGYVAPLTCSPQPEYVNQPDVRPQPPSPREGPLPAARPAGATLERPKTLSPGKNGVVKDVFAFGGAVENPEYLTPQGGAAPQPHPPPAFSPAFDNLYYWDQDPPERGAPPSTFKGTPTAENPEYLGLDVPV

Work on `COc1cc(/C=C/S(=O)(=O)c2ccccc2)cc(OC)c1OC` [VF16] yielded an IC50 [1] of 312 ± 0.28 nM, an IC50 [2] of 7.85 ± 0.88 nM and an IC50 [3] of 158 ± 4.75 nM.
